# Assay results published in the METLIN SMRT retention time set (Domingo-Almenara et al. 2019).
# Assay: gradient 5% acetonitrile 3 min, to 50% in 2 min, to 85% in 15 min, held 3 min, 100 µL/min
# Settings: column: Zorbax Extend-C18 2.1 x 50 mm; eluents: water / acetonitrile, 0.1% formic acid
# In short: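 Using water and acetonitrile that each contained 0.1% formic acid, mixtures of ~100 pure standards were separated at 100 μL/min on a Zorbax Extend-C18 column (2.1 × 50 mm, 1.8 μm). The HPLC fed a quadrupole time-of-flight mass spectrometer working in positive and negative ionization mode, with dead and dwell volumes of 40 μL and 900 μL. Data were acquired over 3 months. Retention time was read from computationally picked adduct peaks after manual inspection of each.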
row,RP-LC retention time [s],SMILES
1,919,Cc1ccc2c(c1)N(S(C)(=O)=O)CCC(C(=O)Nc1cc(Cl)ccc1C)O2 (stereo unspecified)
2,1030,Cc1ccc(CN(C(=O)COc2cc(C)c(Cl)c(C)c2)C2CCS(=O)(=O)C2)o1 (stereo unspecified)
3,840,Cc1cc(C)cc(NC(=O)Cn2nc(N3CCOCC3)c3ccccc3c2=O)c1
4,728,Cc1oc2c(c1C(=O)Nc1ccc(C(F)(F)F)cc1)C1=NC(C)(C)CN1C=N2
5,788,O=c1n(Cc2ccccc2F)nc2ccc(S(=O)(=O)N3CCOCC3)cn12
6,685,COc1cc([C@H]2Oc3cc([C@H]4Oc5cc(O)cc(O)c5C(=O)[C@@H]4O)ccc3O[C@@H]2CO)ccc1O
7,1240,Cc1ccc(N2CCN(S(=O)(=O)c3cc(-c4cc(C)no4)cs3)CC2)c(C)c1
8,818,Cc1ccccc1-c1nnc(CSc2ccc(N)cc2)o1
9,905,CCSc1nnc(-c2nn(C)c3c2CN(S(=O)(=O)c2ccc(OC)cc2)CC3)n1CC
10,692,O=C(c1ccccc1N1C(=O)c2cccc3cccc(c23)C1=O)N1CCOCC1
11,655,COc1ccccc1-c1nc2nccc(-c3cccnc3)n2n1
12,1330,Cc1ccc(-c2coc(-c3ccc(NC(=O)Cc4cccs4)cc3)n2)c(C)c1
13,657,COc1ccc(C2(C(=O)N3CCc4nn(C)c(=O)n4CC3)CC2)cc1
14,1130,COc1ccccc1COC(=O)C1=CN(Cc2ccccc2)S(=O)(=O)N=C1C
15,704,COc1cccc(CN2C[C@@H]3C(=O)N(Cc4ccc5c(c4)OCO5)C(=O)[C@@H]3C2)c1OC
16,868,COc1ccc(/C=C/c2ccc3c(c2)OCCO3)cc1O
17,1060,Cc1oc2ccn(Cc3cccc(F)c3)c(=O)c2c1C(=O)NC1CCCC1
18,581,Cc1oc(-c2ccc(C(=O)NCCCN3CCN(C)CC3)cc2)nc1CS(=O)c1ccccc1 (stereo unspecified)

row,RP-LC retention time [s],SMILES
1,779,Cc1ccc(CNC(=O)CN2CCN(Cc3ccccc3C)C(=O)C2=O)cc1
2,831,COc1ccc(NC(=O)Cc2csc3nc(-c4cccc(Cl)c4)cn23)cc1OC
3,897,COc1ccc(Cc2nc3nccc(-c4ccsc4)n3n2)cc1
4,918,CCc1ccccc1NC(=O)CN1C(=O)C2CCCCN2c2ccc(S(=O)(=O)N(C)C)cc21 (stereo unspecified)
5,974,O=C(COc1ccc(Cl)cc1)Nc1nc2ccc([N+](=O)[O-])cc2s1
6,853,CCCN(C(=O)c1cccc(NC(=O)[C@H]2[C@@H]3C[C@@H]4[C@H]2C(=O)O[C@@H]4C3)c1)c1ccccc1F
7,1160,COc1ccc(-c2ncc3c(n2)CCN(S(=O)(=O)c2ccc4c(c2)CCC4)C3)cc1
8,1120,COC(=O)c1ccc(NC(=O)C2CCCN(c3nc4ccccc4nc3OC)C2)cc1 (stereo unspecified)
9,657,OCCNCc1ccc(-c2cc(Cl)ccc2Cl)o1
10,772,COCCn1cc(CCNC(=O)Nc2ccc(C)c(F)c2)c2cccnc21
11,690,COc1ccc(NC(=O)C2(C)CCCCC(=O)N2)cc1F (stereo unspecified)
12,869,O=C1CC(c2noc(C3CCC3)n2)CN1c1ccccc1 (stereo unspecified)
13,943,Cc1ccc(NC(=O)N(C)CCc2noc(COc3ccccc3F)n2)cc1F
14,1200,CCOc1nc2ccccc2nc1N1CCCC(C(=O)Nc2ccccc2F)C1 (stereo unspecified)
15,751,CN1C(=O)CCc2cc(NS(=O)(=O)Cc3cccc(Cl)c3)ccc21
16,655,CCOC(=O)C1=C(CN2CCc3ccccc3C2)NC(=O)NC1c1cccs1 (stereo unspecified)
17,1100,CCOC(=O)c1nnc2c(-c3ccc(Br)cc3)c(C)nn2c1C

# The next lines start with the compound.
row,SMILES,RP-LC retention time [s]
1,CC(C)(C)NC[C@H](O)COc1cccc2[nH]c(C#N)cc12,663
2,CCc1ccc(CNC(=O)Cn2ccc3ccc(N4CCCCC4)nc32)cc1,999
3,CCCCCCCC1(C)NC(=O)NC1=O (stereo unspecified),817
4,O=C(Nc1cccc(F)c1)C1CCN(C(=O)c2ncn3c2COC(c2ccccc2)C3)CC1 (stereo unspecified),921
5,O=C(NC1CCCCC1)c1nnc(-c2ccc(S(=O)(=O)N3CCCC3)cc2)o1,952
6,COc1cc(OC)cc(C(=O)N2CCN(c3cc(C(C)C)n4cnnc4n3)CC2)c1,576
7,Cc1cc(C)cc(NS(=O)(=O)c2cc(-c3[nH]ncc3C(=O)N3CCCCC3)oc2C)c1,807
8,CCOc1ccc(-c2noc(Cc3nc(-c4ccc(F)cc4)cs3)n2)cc1,1290
9,CCN(C(=O)Cn1c(CNC(=O)c2ccco2)nc2ccccc21)c1ccccc1,687
10,CCCNc1cc(N2CCC(CCC(=O)NCc3cccnc3)CC2)ncn1,556
11,CCc1ccccc1NC(=O)N1CCC(n2cnnc2C2CC2)C1 (stereo unspecified),628
12,N#Cc1ccc(NC(=O)Cn2cccc(-c3nc(-c4ccc(F)cc4)no3)c2=O)cc1,857
13,CCCN(C)CC1(O)CCC2(CCN(C(=O)c3sccc3C)CC2)CC1,560
14,COCCNC(=O)C1CCCN(c2cnc3nccnc3c2)C1 (stereo unspecified),588
15,CC(C)c1noc(C2(NC(=O)c3ccoc3)CCCCC2)n1,867
16,CCCNc1cc(N2CCC(CCC(=O)NC3CCN(Cc4ccccc4)CC3)CC2)ncn1,572

row,SMILES,RP-LC retention time [s]
1,CN(C)C(=O)c1ccc2c(c1)nnn2CCNC(=O)Nc1ccc(Cl)cc1,678
2,Cn1cnc2ccc(-c3noc(CNS(=O)(=O)c4ccccc4)n3)cc21,739
3,Cc1ccc(N2C(=O)C3N=NN(Cc4nc(-c5cccc(C(F)(F)F)c5)no4)C3C2=O)cc1Cl (stereo unspecified),1180
4,O=C(c1nnc(-c2ccc(S(=O)(=O)N3CCCC3)cc2)o1)N1CCC(Cc2ccccc2)CC1,1130
5,CCCS(=O)(=O)N1CCCC(Cc2noc(-c3cnccn3)n2)C1 (stereo unspecified),764
6,CC(C)NC(=O)c1ccc(OCC2CCN(C(=O)c3c(F)cccc3Cl)CC2)cc1,888
7,CCCn1c(=O)c(N2CCN(C(=O)CC(C)C)CC2)nc2ccccc21,1010
8,CCOC(=O)CNC(=O)NCc1cccn1Cc1cc(C)ccc1C,888
9,Cc1[nH]c(C(=O)NC2CCCCC2)c(C)c1S(=O)(=O)N1CCCC1,843
10,Cc1sc(-c2noc(C(C)C)n2)cc1S(=O)(=O)N1CCC(C(=O)Nc2cccc(C#N)c2)CC1,1090
11,CCN(CCCNC(=O)C1CCCN(c2ncnc3c2nc2n3CCCCC2)C1)c1cccc(C)c1 (stereo unspecified),647
12,Cc1nn(C(C)C(=O)NCCCOC(C)C)c(=O)c2nn(-c3ccccc3)c(C)c12 (stereo unspecified),771
13,COc1ccc(-n2nc3c(N4CCCC(C(=O)NCCC5=CCCCC5)C4)nnc(C)c3c2C)cc1 (stereo unspecified),814
14,CCC(C)NC(=O)N1CCCN(C2=NS(=O)(=O)C(c3ccccc3)=C2C)CC1 (stereo unspecified),748
15,COC(=O)C(C)NC(=O)NCc1cccn1Cc1ccc(F)cc1 (stereo unspecified),814
